Laboratory results reported in US11555029B2, “PD-1/PD-L1 inhibitors” (Gilead Sciences, Inc., priority 2018, dated 2023).
Several values for one entry are separate records, joined by “and”; a condition that tells them apart may be missing. Equal entries are not always repeated.

What was measured:
[1] = tested on: HBV-specific CD4+ T cells from CHB patient PBMCs; assay: HBV-specific CD4+ T cell expansion and recall response assay in CHB patient PBMCs (IFN-γ, granzyme B by flow cytometry); format: cell-based, human
Experimental: (§1) Assays PBMC Isolation from Whole Blood PBMCs were isolated from whole blood using a standard Ficoll® Paque gradient. Briefly, 25-30 mL of blood was gently overlaid on top of 15 mL Ficoll® Paque Plus solution (GE Healthcare, Chicago, Ill.) in a 50 mL Falcon tube, and centrifuged in an Allegra X-14R (Beckman Coulter, Indianapolis, Ind.) at 520 g for 20 minutes at 25° C. […] Next, the cells were centrifuged at 520 g for 5 minutes and red blood cells (RBC) lysed for 5 minutes at room temperature using RBC Lysis Buffer (eBioscience, San Diego, Calif.). […] PBMCs were either subsequently used for the T cell expansion assay, or were cryopreserved with 10% DMSO in PBS before further use. CD8^+ and CD4^+ T Cell 7-Day Expansion and Recall Response Assay
(§2) PBMCs were seeded at 2-4×10^5 cells/well in 96-well round bottom plates (Corning, N.Y.). […] PBMCs were incubated for 7 days at 37° C. with 5% CO2 in a humidified incubator. […] To inhibit protein transport, 1 μg/mL brefeldin. A solution (Sigma) was added to each well. After overnight incubation, cells were processed for immunostaining and flow cytometry as described herein.
(§3) Washed cells were resuspended in Live/Dead Aquamine Stain (Invitrogen) per manufacturer's instructions to determine the viability of the cells by flow cytometry. Live/Dead Aqua stained PBMCs were washed twice with FACS staining buffer (1% FBS in PBS), and then incubated with 50 μL of Fc blocking reagent (BD Biosciences, Franklin Lakes, N.J.) for 10 minutes at room temperature. A mixture of antibodies (50 μL/well) described in Table 6 were added to the blocking solution for surface staining, and PBMCs were incubated with the antibodies for 40 minutes at 4° C. […] Cells were washed twice with the permeabilization reagent included in the FoxP3 staining kit and incubated with antibodies for intracellular staining of IFN-γ and GrB (Table 6) at 1.0 μg/mL. After 1 hour incubation at 4° C., PBMCs were centrifuged and washed twice before being resuspended in FACS buffer. Stained PBMCs were analyzed by flow cytometry using a BD LSRFortessa X-20 Cell Analyzer (Becton Dickinson). BD Comp Beads (BD Biosciences) were used as compensation controls. CD8^+ and CD4^+ T cells were identified by gating on the live Aquamine^−CD3^+CD8^+ and Aquamine^−CD3^+CD4^+ PBMC population respectively.
(§4) Flow cytometry data was analyzed using FlowJo Flow Cytometry Analysis Software v10 (TreeStar, Ashland, Oreg.). Data was exported and statistical analysis was performed using GraphPad Prism v6 (GraphPad Software, La Jolla, Calif.). Statistical significance relative to the DMSO control was calculated by two-tailed, paired t-test.

[2] = tested on: HBV-specific CD8+ T cells from CHB patient PBMCs; assay: HBV-specific CD8+ T cell expansion and recall response assay in CHB patient PBMCs (IFN-γ, granzyme B by flow cytometry); format: cell-based, human
Experimental: as §1, §2, §3, §4

[3] = 650 nM compound 139 or 10 μg/mL durvalumab, PBMCs from 9 of the 14 CHB donors (FIG. 1B)

## COc1nc(-c2cccc(-c3cccc(-c4cnc(CNC[C@@H]5CCC(=O)N5)c(OC)n4)c3Cl)c2Cl)cnc1CNC[C@@H]1CCC(=O)N1 [compound 139]
[1]; 650 nM compound 139, HBV core peptide-stimulated PBMCs from CHB donors, vs DMSO
  increase of granzyme B (GrB)+ CD4+ T cells: 1.8 fold
[1]; 650 nM compound 139 or 10 μg/mL durvalumab treated PBMCs
  frequency of CD4+ IFN-γ+ T cells: 2.5%
[1]; 650 nM compound 139 or 10 μg/mL durvalumab, DMSO 3.5%
  frequency of GrB+CD4+ T cells: 4.7%
[1]; FIG. 2A and FIG. 2B
  IFN-γ and Granzyme B Production in chronic hepatitis B (CHB) CD4+ T Cells: enhances
[2]; 650 nM compound 139, HBV core peptide-stimulated PBMCs from 14 CHB donors, vs DMSO
  increase of granzyme B (GrB)+ CD8+ T cells: 1.2 fold
[2]; [3]
  increase of GrB+CD8+ T cells, comparison with durvalumab: 1.2 fold
  increase of IFN-γ+CD8+ T cells, comparison with durvalumab: 2.5 fold
[2]; FIG. 1A and FIG. 1B
  IFN-γ and Granzyme B Production in chronic hepatitis B (CHB) CD8+ T Cells: enhances
[2]; individual CHB donor, HBV core peptide-stimulated PBMCs, compound 139 650 nM
  % IFN-γ+ (IFN-γ+ CD8+ T cells): 0.94% and 0.41% and 0.61% and 0.90% and 0.30%
